Where two headings read alike, the source gives them in different places. Marks after values point to notes of the source that are not given here.
Assays:
[1] = Multiple ascending dose (MAD) study in healthy volunteers: safety (TEAEs); assay type: in vivo, human; details: blinded; for Number of SAEs / Number of TEAEs / Number of TEAEs grade ≥ 3 / Number of TEAEs leading to study drug discontinuation / Number of drug-related TEAEs: HV MAD, n=10 incl. placebo
Experimental: To evaluate the safety and tolerability of multiple ascending doses (MAD) of Compound I, seven healthy volunteers aged 18 to 55 years old were administered a loading dose of 300 mg of Compound I for 3 days, followed by maintenance doses of 15 mg, 25 mg, 50 mg, or 75 mg of Compound I for 14 days. Three healthy volunteers aged 18 to 55 years old were administered placebo for 14 days. Primary endpoints were safety and tolerability; key secondary endpoints included PK and effect on electrocardiogram (ECG) parameters.
(§1) Another study was initiated in healthy volunteer aged 18-55 years old to evaluate the safety and tolerability of multiple ascending doses of Compound I. Four cohorts of 10 subjects each (n=7 Compound I, n=3 placebo) were evaluated in a sequential double-blind manner. To reach steady state levels each subject received a loading dose regimen for 3 or 4 days followed by once daily medication for up to 14 days. Primary endpoints were safety and tolerability; key secondary endpoints included PK and effect on electrocardiogram (ECG) parameters. Table 7 below provides an overview of the doses of Compound I or placebo that were used in each cohort.
Endpoints were safety (clinical laboratory test results, adverse events, electrocardiogram […] parameters, physical examination findings) and tolerability, and PK.

hemoglobin [2] = target: T1, hemoglobin (Homo sapiens, UniProt P68871+P69905, E7V); test: Percent Hb occupancy in SCD patients (single dose, MAD-1, MAD-2, MAD-3); assay type: in vivo; details: for receptor occupancy at 150 mg / receptor occupancy at 50 mg / receptor occupancy at 100 mg: human; for receptor occupancy at 50 mg: 50 mg QD × 5 weeks (MAD-1); for receptor occupancy at 100 mg: 100 mg QD × 3 weeks (MAD-2)
T1 construct: divided by the molar concentration of hemoglobin in RBCs; endogenous in cells; host or cells: red blood cells / blood of patients with SCD (HbSS)
Experimental: (§2) In some embodiments, the therapeutically effective amount is determined by measuring the percent of hemoglobin occupied by the compound, i.e., the percent Hb occupancy. The percent Hb occupancy is a measure of target engagement defined as the percentage of hemoglobin bound by a compound (e.g., Compound I) calculated as the molar concentration of the compound (e.g., Compound I) in RBCs divided by the molar concentration of hemoglobin in RBCs (the mean corpuscular hemoglobin concentration calculated from the hematology panel). The values for concentration of a compound (e.g., Compound I) in RBCs is calculated from the concentrations in whole blood and plasma, and the hematocrit.
After a washout period of at least 56 days (so that elimination PK of Compound I could be assessed), the patients were administered a loading dose of 300 mg per day of Compound I for one day followed by 200 mg per day of Compound I for one day, and then were administered a maintenance dose of 50 mg per day of Compound I for five weeks (“MAD-1 Cohort”). The same patients then received another loading dose of 500 mg per day of Compound I for one day followed by 400 mg per day of Compound I for one day, and then were administered another maintenance dose of 100 mg per day of Compound I for three weeks (“MAD-2 Cohort”). The total treatment period of the MAD-1 Cohort and MAD-2 Cohort was 8 weeks.
Following the conclusion of the MAD-2 study and a washout period of about 8 months, the selected patients (n=4) were administered a loading dose of 300 mg BID for 4 days, followed thereafter by a maintenance dose of 150 mg QD (MAD-3 Cohort).

hemoglobin [3] = target: T2, hemoglobin (Homo sapiens, UniProt P68871+P69905); test: Percent Hb occupancy after repeated administration, healthy volunteers; assay type: in vivo
T2 construct: divided by the molar concentration of hemoglobin in RBCs; endogenous in cells; host or cells: red blood cells of healthy volunteers (in vivo)
Experimental: as §2, §1
Preliminary whole blood PK parameters (geometric mean and % CV) and hemoglobin occupancy in healthy volunteers of the 15 mg, 25 mg, 50 mg, and 75 mg MAD cohorts are summarized in Table 10.

[4] = SCD, read-out: Hemoglobin Occupancy (%) at Cmax, mean
[5] = SCD, read-out: Hemoglobin Occupancy (%) at Cmin, mean

% Hb occupancy based on Cmax (hemoglobin [2]; SCD single 100 mg, mean): 3.3%
patients who achieved Hb occupancy >40% (hemoglobin [2]; SCD, 100 mg dose level): two out of six
mean Hb occupancy (hemoglobin [2]; adults with SCD, maintenance doses 100 mg and 150 mg QD): > 30%
receptor occupancy at 150 mg (hemoglobin [2]; MAD-3 (150 mg QD) week 6, SCD patient 0001): 48%
receptor occupancy at 150 mg (hemoglobin [2]; MAD-3 (150 mg QD) week 6, SCD patient 0003 (did not adhere to regimen)): 7%
receptor occupancy at 150 mg (hemoglobin [2]; MAD-3 (150 mg QD) week 6, SCD patient 0004 (Hb and hematocrit increases lower the occupancy value)): 31%
receptor occupancy at 150 mg (hemoglobin [2]; MAD-3 (150 mg QD) week 6, SCD patient 0005): 46%
receptor occupancy at 50 mg (hemoglobin [2]; [4]): 17.7%
receptor occupancy at 50 mg (hemoglobin [2]; [5]): 15.3%
receptor occupancy at 100 mg (hemoglobin [2]; [4]): 32.6%
receptor occupancy at 100 mg (hemoglobin [2]; [5]): 29.8%
receptor occupancy at 15 mg (hemoglobin [3]; HV MAD Day 14, 15 mg QD maintenance (loading 200 mg x 3 days)): 16%
receptor occupancy at 25 mg (hemoglobin [3]; HV MAD Day 14, 25 mg QD maintenance (loading 200 mg x 3 days)): 16.3%
receptor occupancy at 50 mg (hemoglobin [3]; HV MAD Day 14, 50 mg QD maintenance (loading 500/400/400 mg)): 25.8%
receptor occupancy at 75 mg (hemoglobin [3]; HV MAD Day 14, 75 mg QD maintenance (loading 500/500/500/400 mg)): 35.2%
Structure (SMILES): O=Cc1c(O)cccc1OC[C@@H]1COCCN1C(=O)c1cccnc1CCO [Compound I, (S)-2-hydroxy-6-((4-(2-(2-hydroxyethyl)nicotinoyl)morpholin-3-yl)methoxy)benzaldehyde]
tolerability ([1]; HV MAD study): well tolerated
Number of SAEs ([1]; 15 mg maintenance cohort): 0
Number of TEAEs ([1]; 15 mg maintenance cohort): 8
Number of TEAEs grade ≥ 3 ([1]; 15 mg maintenance cohort): 0
Number of TEAEs leading to study drug discontinuation ([1]; 15 mg maintenance cohort): 0
Number of drug-related TEAEs ([1]; 15 mg maintenance cohort, grade 1 somnolence): 1^b
Number of SAEs ([1]; 25 mg maintenance cohort): 0
Number of TEAEs ([1]; 25 mg maintenance cohort): 5
Number of TEAEs grade ≥ 3 ([1]; 25 mg maintenance cohort): 0
Number of TEAEs leading to study drug discontinuation ([1]; 25 mg maintenance cohort): 0
Number of drug-related TEAEs ([1]; 25 mg maintenance cohort, vomiting and nausea in 1 participant): 2^c
Number of SAEs ([1]; 50 mg maintenance cohort): 0
Number of TEAEs ([1]; 50 mg maintenance cohort): 17
Number of TEAEs grade ≥ 3 ([1]; 50 mg maintenance cohort): 1
Number of TEAEs leading to study drug discontinuation ([1]; 50 mg maintenance cohort): 0
Number of drug-related TEAEs ([1]; 50 mg maintenance cohort, headaches and dizziness in 1 participant): 2^d
Number of SAEs ([1]; 75 mg maintenance cohort): 0
Number of TEAEs ([1]; 75 mg maintenance cohort): 3
Number of TEAEs grade ≥ 3 ([1]; 75 mg maintenance cohort): 0
Number of TEAEs leading to study drug discontinuation ([1]; 75 mg maintenance cohort): 0
Number of drug-related TEAEs ([1]; 75 mg maintenance cohort): 0

From patent US20250041312A1, “METHODS OF ADMINISTERING A MODULATOR OF HEMOGLOBIN” (Global Blood Therapeutics, Inc., priority 2021, published 2025)
